Experimental data published in ChEMBL document CHEMBL1122585, “Synthesis of a novel class of heteroaromatic amino acids and their use in the preparation of analogues of luteinizing hormone-releasing hormone” (J Med Chem, 1984).

Organism: Rattus norvegicus
Assay: Antifertility effect in adult female rats by estrus suppression assay
Format: functional

Q: For CC(C)C[C@H](NC(=O)[C@@H](Cc1nc2ccccc2o1)NC(=O)[C@H](Cc1ccc(O)cc1)NC(=O)[C@H](CO)NC(=O)[C@H](Cc1c[nH]c2ccccc12)NC(=O)[C@H](Cc1c[nH]cn1)NC(=O)[C@@H]1CCC(=O)N1)C(=O)N[C@@H](CCCN=C(N)N)C(=O)N1CCC[C@H]1C(=O)NCC(N)=O, which Potency is on record?
A: 1.2

Q: Which Potency does the source give for CC(C)C[C@H](NC(=O)[C@@H](Cc1nc2cc(Cl)c(Cl)cc2[nH]1)NC(=O)[C@H](Cc1ccc(O)cc1)NC(=O)[C@H](CO)NC(=O)[C@H](Cc1c[nH]c2ccccc12)NC(=O)[C@H](Cc1c[nH]cn1)NC(=O)[C@@H]1CCC(=O)N1)C(=O)N[C@@H](CCCN=C(N)N)C(=O)N1CCC[C@H]1C(=O)NCC(N)=O here?
A: 0.9

Q: For CCNC(=O)[C@@H]1CCCN1C(=O)[C@H](CCCN=C(N)N)NC(=O)[C@H](CC(C)C)NC(=O)[C@@H](Cc1nc2c(ccc3ccccc32)[nH]1)NC(=O)[C@H](Cc1ccc(O)cc1)NC(=O)[C@H](CO)NC(=O)[C@H](Cc1c[nH]c2ccccc12)NC(=O)[C@H](Cc1c[nH]cn1)NC(=O)[C@@H]1CCC(=O)N1, which Potency is on record?
A: 0.8

Q: For CCNC(=O)[C@@H]1CCCN1C(=O)[C@H](CCCN=C(N)N)NC(=O)[C@H](CC(C)C)NC(=O)[C@@H](Cc1nc2ccccc2[nH]1)NC(=O)[C@H](Cc1ccc(O)cc1)NC(=O)[C@H](CO)NC(=O)[C@H](Cc1c[nH]c2ccccc12)NC(=O)[C@H](Cc1c[nH]cn1)NC(=O)[C@@H]1CCC(=O)N1, which Potency is on record?
A: 1

Q: With CC(C)C[C@H](NC(=O)[C@@H](Cc1nc2ccccc2s1)NC(=O)[C@H](Cc1ccc(O)cc1)NC(=O)[C@H](CO)NC(=O)[C@H](Cc1c[nH]c2ccccc12)NC(=O)[C@H](Cc1c[nH]cn1)NC(=O)[C@@H]1CCC(=O)N1)C(=O)N[C@@H](CCCN=C(N)N)C(=O)N1CCC[C@H]1C(=O)NCC(N)=O as the compound, how does the Potency read?
A: 1

Q: Which Potency does the source give for CCNC(=O)[C@@H]1CCCN1C(=O)[C@H](CCCN=C(N)N)NC(=O)[C@H](CC(C)C)NC(=O)[C@@H](Cc1nc2c([nH]1)CCCC2)NC(=O)[C@H](Cc1ccc(O)cc1)NC(=O)[C@H](CO)NC(=O)[C@H](Cc1c[nH]c2ccccc12)NC(=O)[C@H](Cc1c[nH]cn1)NC(=O)[C@@H]1CCC(=O)N1 here?
A: 1.4

Q: With CC(C)C[C@H](NC(=O)[C@@H](Cc1nc2ccccc2[nH]1)NC(=O)[C@H](Cc1ccc(O)cc1)NC(=O)[C@H](CO)NC(=O)[C@H](Cc1c[nH]c2ccccc12)NC(=O)[C@H](Cc1c[nH]cn1)NC(=O)[C@@H]1CCC(=O)N1)C(=O)N[C@@H](CCCN=C(N)N)C(=O)N1CCC[C@H]1C(=O)NCC(N)=O as the compound, how does the Potency read?
A: 0.3

Q: For Cc1cc2nc(C[C@@H](NC(=O)[C@H](Cc3ccc(O)cc3)NC(=O)[C@H](CO)NC(=O)[C@H](Cc3c[nH]c4ccccc34)NC(=O)[C@H](Cc3c[nH]cn3)NC(=O)[C@@H]3CCC(=O)N3)C(=O)N[C@@H](CC(C)C)C(=O)N[C@@H](CCCN=C(N)N)C(=O)N3CCC[C@H]3C(=O)NCC(N)=O)[nH]c2cc1C, which Potency is on record?
A: 1.6

Q: For CC(C)C[C@H](NC(=O)[C@@H](Cc1nc2c([nH]1)CCCC2)NC(=O)[C@H](Cc1ccc(O)cc1)NC(=O)[C@H](CO)NC(=O)[C@H](Cc1c[nH]c2ccccc12)NC(=O)[C@H](Cc1c[nH]cn1)NC(=O)[C@@H]1CCC(=O)N1)C(=O)N[C@@H](CCCN=C(N)N)C(=O)N1CCC[C@H]1C(=O)NCC(N)=O, which Potency is on record?
A: 0.6

System: not listed separately
Assay: Acid dissociation constant was determined
Format: ADME

Q: Which pKa does the source give for NC(Cc1nc2ccccc2[nH]1)C(=O)O (stereo not drawn) here?
A: 4.7

Q: With NC(Cc1nc2c([nH]1)CCCC2)C(=O)O (stereo not drawn) as the compound, how does the pKa read?
A: 7.5

Q: For NC(Cc1nc2cc(Cl)c(Cl)cc2[nH]1)C(=O)O (stereo not drawn), which pKa is on record?
A: 3.4

Q: With Cc1cc2nc(CC(N)C(=O)O)[nH]c2cc1C (stereo not drawn) as the compound, how does the pKa read?
A: 5.4
